Key:
[1] = test system: A-549 cells; assay: Cell cycle distribution by flow cytometry; format: cell-based, human; conditions: A-549, 24 h; for cells accumulated in the G2/M phase: concentration per compound as in Tables 6 and 7, control 14%
Procedure, shortened: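 A-549 cells were harvested, fixed in cold 70% ethanol (30 min, −20 °C), then stained with 50 µg/mL propidium iodide plus 100 µg/mL RNase A in PBS for 20 min at room temperature in the dark. Flow cytometry used 488 nm excitation and 620 nm emission, giving the percentage of cells in G2/M.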

[2] = test system: A-549 cells; assay: Effect on the cellular microtubule network (immunofluorescence); format: cell-based, human
Procedure: The effect on the cellular microtubule network of CA-4 derivatives was studied for compounds 1, 3.7 (L-Thr-OMe), 3.8 (L-Tyr-OMe), 4.2 (L-Val) and 4.3 (L-Leu), which were those accumulating more cells in the G2/M phase. Thus, A-549 cells were incubated for 24 h in the presence of the above compounds and CA-4 at the concentrations indicated in Figure 4.
The effect of some derivatives on the cellular microtubule network were also studied on A-549 cells. The selected compounds were 7.1 (Fmoc-Gly) (0.5 μM), 8.1 (Gly) (2 μM), 8.2 (L-Ala) (3 μM) and 10.1 (D-Val) (40 μM), which were those exerting a higher effect on the cell cycle.
For immunofluorescence microscopy of the microtubule network, 10^6 cells were plated on cover glass and incubated with the different drugs. Cells were then fixed in 3.7% formaldehyde (in PBS pH 7.4) for 20 min at room temperature and permeabilized with PBS-Triton X-100 0.5% for 10 min at room temperature. Direct immunostaining was carried out for 2 h at room temperature with a primary FITC-conjugated anti-α-tubulin antibody (dilution 1:400 in PBS-BSA 1% from a 1 mg/mL solution; monoclonal antibody, clone DM1A; Sigma-Aldrich, Darmstadt, Germany.). Next, cells were incubated for 45 min at room temperature in darkness with secondary Alexa Fluor 488-conjugated antibodies (dilution 1:200 each from 1.5 mg/mL; Molecular Probe, France). Then, cells were washed in PBS and cover glasses were mounted with a drop of ProLong® antifade solution (Invitrogen). The cytoskeleton was imaged by a confocal laser scanning microscope (CLSM) Leica SP5 with a Leica inverted microscope, equipped with a Plan-Apochromat 63× oil immersion objective (NA = 1.4). Each image was recorded with the CLSM’s spectral mode selecting specific domains of the emission spectrum. The FITC fluorophore was excited at 488 nm with an argon laser, and its fluorescence emission was collected between 496 nm and 535 nm.

[3] = test system: HEK-293 (human embryonic kidney cells); assay: Inhibition of cell proliferation (MTT), nontumor HEK-293; format: cell-based; conditions: Homo sapiens, 48 h of treatment (footnote), average ±SD of three experiments
[4] = test system: A-549 (human pulmonary adenocarcinoma); assay: Inhibition of cell proliferation (MTT), A-549; format: cell-based; conditions: 48 h of treatment (footnote), average ±SD of three experiments
Procedure, shortened: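 Antiproliferative activity against A-549 human pulmonary adenocarcinoma cells was measured by MTT assay. Cells were seeded at 25,000/mL in 96-well plates, cultured 24 h, then exposed to compounds at various concentrations. MTT (20 µL, 5 mg·mL^−1) was added for 2 h at 37 °C, formazan dissolved in 200 µL DMSO, and absorbance read at 540 nm. IC50 values came graphically from three independent experiments.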

[5] = test system: MCF-7 (breast adenocarcinoma); assay: Inhibition of cell proliferation (MTT), MCF-7; format: cell-based, human; conditions: Homo sapiens, 48 h of treatment (footnote), average ±SD of three experiments
[6] = test system: HT-29 (human colon adenocarcinoma); assay: Inhibition of cell proliferation (MTT), HT-29; format: cell-based; conditions: Homo sapiens, 48 h of treatment (footnote), average ±SD of three experiments
[7] = test system: purified tubulin; assay: Critical concentration (CrC) for the assembly of purified tubulin in GAB; format: biochemical; conditions: compound 27.5 μM, tubulin 25 μM, glycerol (GAB) and GTP assembly buffer; control 7.9 ± 1.2
Procedure: The effect on the self-assembly of tubulin was determined by measuring the critical concentration (CrC).

[8] = test system: tubulin; assay: In vitro tubulin polymerization by turbidimetry (It50); format: biochemical; conditions: turbidimetry at 350 nm, 37 °C; control 16.6 ± 1.0
Procedure: Figure 3 also includes polymerization curves in the presence of CA-4, AmCA-4 and paclitaxel. This test was also performed using paclitaxel, a microtubule stabilizing agent, as a control for the complete formation of microtubules (see Figure 3).

[9] = Homo sapiens, A549, 48 h, Table 1

Structure (SMILES) | cells accumulated in the G2/M phase [1] | Effect on the microtubule network ([2]; A-549, 24 h, 50 μM) | IC50 ([3]; HEK293, 48 h, Table 1) [µM] | IC50 [4, 9] [µM] | IC50 ([5]; MCF7, 48 h, Table 1) [µM] | IC50 ([6]; HT-29, 48 h, Table 1) [µM] | CrC (critical concentration) [7] [µM] | G0/G1 ([1]; 75 μM) [%] | G2/M ([1]; 75 μM) [%] | S ([1]; 75 μM) [%] | further results
CCOC(=O)COc1cc(/C=C\c2cc(OC)c(OC)c(OC)c2)ccc1OC [Compound 1, Ethyl (Z)-2-(2-methoxy-5-(3,4,5-trimethoxystyryl)phenoxy)acetate] | 50–70% | produce disorganization in the mitotic spindle | 3.6 ± 0.5 | < 10 | 8 ± 4 | 7 ± 4 |  |  |  |  | G0/G1 ([1]; 50 μM): 23 ± 5%; G2/M ([1]; 50 μM): 55 ± 8%; S ([1]; 50 μM): 22 ± 4%; IC50 ([4]; Table 1): 9 ± 1 µM
COc1ccc(/C=C\c2cc(OC)c(OC)c(OC)c2)cc1OCC(=O)O [Compound 2, (Z)-2-(2-Methoxy-5-(3,4,5-trimethoxystyryl)phenoxy)acetic acid] |  |  |  | 38 ± 5 |  |  | 12.0 ± 0.7 |  |  |  | IC50 ([3]; HEK293, Table 1): 12 ± 5 µM; melting point: 109 to 111 °C; IC50 ([5]; MCF7, Table 1): 11 ± 5 µM; IC50 ([6]; HT-29, Table 1): 33 ± 6 µM
COC(=O)[C@@H](NC(=O)COc1cc(/C=C\c2cc(OC)c(OC)c(OC)c2)ccc1OC)C(C)O (some centres unmarked) [Compound 3.7] | 50–70% |  | 14 ± 2 | 19 ± 1 | 12 ± 4 | 18 ± 7 | 10 ± 3 | 25 ± 5 | 57 ± 6 | 18 ± 1 | Effect on the microtubule network ([2]; A-549, 24 h, 75 μM): produce disorganization in the mitotic spindle
COC(=O)[C@H](Cc1ccc(O)cc1)NC(=O)COc1cc(/C=C\c2cc(OC)c(OC)c(OC)c2)ccc1OC [Compound 3.8] | 50–70% |  | 10 ± 2 | 18 ± 1 | 12 ± 4 | 16 ± 5 |  | 17 ± 2 | 65 ± 1 | 18 ± 1 | Effect on the microtubule network ([2]; A-549, 24 h, 75 μM): produce disorganization in the mitotic spindle
COc1ccc(/C=C\c2cc(OC)c(OC)c(OC)c2)cc1OCC(=O)N[C@@H](CC(C)C)C(=O)O [Compound 4.3] | 50–70% | produce disorganization in the mitotic spindle | 9 ± 2 | 14 ± 2 | 16 ± 6 | 15 ± 5 | 8 ± 3 | 22 ± 6 | 63 ± 5 | 15 ± 2 | 
COc1ccc(/C=C\c2cc(OC)c(OC)c(OC)c2)cc1OCC(=O)N[C@@H](Cc1ccccc1)C(=O)O [Compound 4.4] |  | produce disorganization in the mitotic spindle |  | 100 ± 20 |  |  | 11.4 ± 0.7 |  |  |  | IC50 ([3]; HEK293, Table 1): 47 ± 3 µM; IC50 ([5]; MCF7, Table 1): 45 ± 4 µM; IC50 ([6]; HT-29, Table 1): 54 ± 9 µM
COc1ccc(/C=C\c2cc(OC)c(OC)c(OC)c2)cc1NC(=O)[C@H](N)C(C)C [Compound 10.1] |  |  |  |  |  |  | 12.8 ± 0.3 |  |  |  | G0/G1 ([1]; 40 µM): 26 ± 2%; G2/M ([1]; 40 µM): 60 ± 1%; S ([1]; 40 µM): 14 ± 1%; Effect on the microtubule network ([2]; A-549, 0.5 μM): much less active; Effect on the microtubule network ([2]; A-549, 40 μM): almost total depolymerization of the microtubule network; It50 (time required to reach 50% of the polymerization) [8]: 17.1 ± 1.3 min; IC50 ([3]; HEK293, 48 h, Table 2): 2.4 ± 0.3 µM; IC50 ([4]; Homo sapiens, A549, 48 h, Table 2): 9.9 ± 1.3 µM; IC50 ([5]; MCF7, 48 h, Table 2): 4.7 ± 0.7 µM; IC50 ([6]; HT-29, 48 h, Table 2): 4.8 ± 0.6 µM
